Data: PMC8820820, “Feasibility and safety of targeting mitochondria for cancer therapy – preclinical characterization of gamitrinib, a first-in-class, mitochondriaL-targeted small molecule Hsp90 inhibitor” (Cancer Biology & Therapy, 2022)

Tests used:
HCN4 = target: T1, HCN4 (Homo sapiens, UniProt Q9Y3Q4); test: Ion channel screening; format: cell-based; settings: 10 µM
T1 sequence (Q9Y3Q4 1-1203): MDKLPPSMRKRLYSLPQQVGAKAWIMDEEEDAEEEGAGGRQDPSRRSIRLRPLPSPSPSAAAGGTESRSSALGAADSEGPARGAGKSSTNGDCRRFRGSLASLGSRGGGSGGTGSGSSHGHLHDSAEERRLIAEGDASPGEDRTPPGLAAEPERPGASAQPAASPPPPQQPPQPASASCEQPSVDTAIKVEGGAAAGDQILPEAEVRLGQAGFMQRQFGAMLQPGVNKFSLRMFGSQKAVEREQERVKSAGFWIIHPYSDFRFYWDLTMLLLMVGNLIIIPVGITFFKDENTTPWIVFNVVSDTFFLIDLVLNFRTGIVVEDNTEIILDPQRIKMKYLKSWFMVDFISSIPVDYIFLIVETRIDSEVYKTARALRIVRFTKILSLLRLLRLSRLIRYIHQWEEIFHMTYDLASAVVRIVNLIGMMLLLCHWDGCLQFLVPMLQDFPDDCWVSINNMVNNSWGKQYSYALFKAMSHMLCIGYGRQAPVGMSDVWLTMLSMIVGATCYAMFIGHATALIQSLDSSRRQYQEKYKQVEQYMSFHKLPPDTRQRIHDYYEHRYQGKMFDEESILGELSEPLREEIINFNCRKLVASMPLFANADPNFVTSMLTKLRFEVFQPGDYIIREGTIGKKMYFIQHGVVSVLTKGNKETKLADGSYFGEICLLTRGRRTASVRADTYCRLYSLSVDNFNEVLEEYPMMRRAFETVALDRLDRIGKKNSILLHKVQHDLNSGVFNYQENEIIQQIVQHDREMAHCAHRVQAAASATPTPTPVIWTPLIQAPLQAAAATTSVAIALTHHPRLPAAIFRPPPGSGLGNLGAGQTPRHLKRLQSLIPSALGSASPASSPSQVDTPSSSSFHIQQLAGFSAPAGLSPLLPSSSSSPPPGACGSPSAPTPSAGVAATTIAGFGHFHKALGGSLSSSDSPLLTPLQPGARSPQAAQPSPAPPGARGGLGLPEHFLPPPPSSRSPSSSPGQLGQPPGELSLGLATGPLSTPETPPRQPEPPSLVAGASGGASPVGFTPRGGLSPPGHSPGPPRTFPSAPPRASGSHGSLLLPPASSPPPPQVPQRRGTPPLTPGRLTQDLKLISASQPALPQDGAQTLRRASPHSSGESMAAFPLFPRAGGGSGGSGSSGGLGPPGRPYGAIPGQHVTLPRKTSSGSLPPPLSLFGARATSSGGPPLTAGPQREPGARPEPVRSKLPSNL
Excerpt: (§1) Ion channel screening. […] The parameters measured were the maximum inward current evoked on stepping to -20 mV from the 1st and 26th pulse. Human Kv4.3/KChIP2 currents were evoked from a holding potential of -80 mV by a series of four 500 msec pulses to 0 mV using a 1000 msec interval between pulses. The parameter measured was the amplitude of the outward current 50 msec after the onset of the 4th voltage step to 0 mV. […] Human Kv1.5 currents were evoked by a single pulse from a holding potential of -80 mV to a potential of 0 mV for 4 sec before returning to -80 mV. The parameters measured were the maximum amplitude of outward currents evoked at the beginning of the voltage pulse and at the end of the voltage step from -80 mV to 0 mV. Human KCNQ1/minK currents were evoked by a single pulse delivered from a holding potential of -80 mV to +60 mV for 4 sec before returning to -80 mV. The parameter measured was the maximum outward current evoked on stepping to +60 mV from the holding potential of -80 mV. hERG currents were evoked by a three-pulse protocol where voltage was first stepped to +40 mV for two sec from a holding potential of –80 mV to inactivate hERG channels. […] The parameter measured was the maximum inward current evoked upon stepping to -110 mV from the holding potential of -30 mV. […]

Kv4.3/KChIP2 = target: T2, Kv4.3/KChIP2 (Homo sapiens, UniProt Q9UK17); test: Ion channel screening; format: cell-based; settings: 10 µM
T2 sequence (Q9UK17 1-655): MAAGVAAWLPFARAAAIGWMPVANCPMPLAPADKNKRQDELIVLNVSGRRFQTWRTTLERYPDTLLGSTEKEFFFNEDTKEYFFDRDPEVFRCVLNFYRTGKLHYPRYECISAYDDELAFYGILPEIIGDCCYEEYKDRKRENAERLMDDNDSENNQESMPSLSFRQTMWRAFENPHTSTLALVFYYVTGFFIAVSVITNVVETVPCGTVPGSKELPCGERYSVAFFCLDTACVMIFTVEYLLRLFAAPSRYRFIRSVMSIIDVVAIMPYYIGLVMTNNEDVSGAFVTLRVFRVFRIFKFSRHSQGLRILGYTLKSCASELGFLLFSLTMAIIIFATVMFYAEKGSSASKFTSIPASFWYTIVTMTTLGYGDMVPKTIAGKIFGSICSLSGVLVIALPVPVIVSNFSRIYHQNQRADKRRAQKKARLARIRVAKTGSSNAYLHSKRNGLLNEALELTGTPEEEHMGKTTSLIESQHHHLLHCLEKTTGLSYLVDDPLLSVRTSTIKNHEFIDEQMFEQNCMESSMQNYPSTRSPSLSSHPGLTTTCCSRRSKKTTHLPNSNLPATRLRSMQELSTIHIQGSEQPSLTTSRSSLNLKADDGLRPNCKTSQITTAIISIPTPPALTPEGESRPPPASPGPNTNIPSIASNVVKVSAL
T2 sequence (Q9NS61 1-270 partner): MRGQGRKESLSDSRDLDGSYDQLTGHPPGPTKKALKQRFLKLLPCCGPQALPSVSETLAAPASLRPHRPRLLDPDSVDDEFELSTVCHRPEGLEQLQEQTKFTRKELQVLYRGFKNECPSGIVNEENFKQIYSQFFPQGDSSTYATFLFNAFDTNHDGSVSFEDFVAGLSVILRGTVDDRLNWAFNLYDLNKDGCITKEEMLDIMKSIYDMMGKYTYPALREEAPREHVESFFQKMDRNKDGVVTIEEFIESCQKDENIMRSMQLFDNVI
Excerpt: as §1

CYP2B6 = target: T3, CYP2B6 (Homo sapiens, UniProt P20813); settings: microsomes
T3 sequence (P20813 1-491): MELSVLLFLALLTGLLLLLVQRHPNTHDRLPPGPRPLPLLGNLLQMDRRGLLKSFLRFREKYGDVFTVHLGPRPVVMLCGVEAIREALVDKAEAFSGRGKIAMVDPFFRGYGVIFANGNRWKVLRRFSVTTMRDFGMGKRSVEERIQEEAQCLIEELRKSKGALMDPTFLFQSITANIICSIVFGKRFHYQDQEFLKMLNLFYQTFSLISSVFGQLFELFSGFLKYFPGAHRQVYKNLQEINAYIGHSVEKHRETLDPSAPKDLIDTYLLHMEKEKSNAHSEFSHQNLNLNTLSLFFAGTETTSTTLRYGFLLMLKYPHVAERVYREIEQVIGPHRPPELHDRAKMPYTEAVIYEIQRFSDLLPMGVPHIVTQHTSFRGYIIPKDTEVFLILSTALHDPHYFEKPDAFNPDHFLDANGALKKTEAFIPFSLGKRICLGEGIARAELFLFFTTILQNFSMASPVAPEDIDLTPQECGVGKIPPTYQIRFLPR
Description: (§2) CYP inhibition in liver microsomes. […] Samples were analyzed for metabolite formation by LC-MS/MS. The results were expressed using the peak area ratio of analyte to internal standard, based on the calibration curves.
(§3) Where Range=fitted uninhibited value, s=slope factor, x=inhibitor concentration, y=% control activity.

Kv1.5 = Kv1.5 (Homo sapiens, UniProt P22460); test: Ion channel screening; format: cell-based; settings: 10 µM
Excerpt: as §1

CYP3A4 = CYP3A4 (Homo sapiens, UniProt P08684); settings: microsomes
Sequence of CYP3A4 (P08684 whole entry): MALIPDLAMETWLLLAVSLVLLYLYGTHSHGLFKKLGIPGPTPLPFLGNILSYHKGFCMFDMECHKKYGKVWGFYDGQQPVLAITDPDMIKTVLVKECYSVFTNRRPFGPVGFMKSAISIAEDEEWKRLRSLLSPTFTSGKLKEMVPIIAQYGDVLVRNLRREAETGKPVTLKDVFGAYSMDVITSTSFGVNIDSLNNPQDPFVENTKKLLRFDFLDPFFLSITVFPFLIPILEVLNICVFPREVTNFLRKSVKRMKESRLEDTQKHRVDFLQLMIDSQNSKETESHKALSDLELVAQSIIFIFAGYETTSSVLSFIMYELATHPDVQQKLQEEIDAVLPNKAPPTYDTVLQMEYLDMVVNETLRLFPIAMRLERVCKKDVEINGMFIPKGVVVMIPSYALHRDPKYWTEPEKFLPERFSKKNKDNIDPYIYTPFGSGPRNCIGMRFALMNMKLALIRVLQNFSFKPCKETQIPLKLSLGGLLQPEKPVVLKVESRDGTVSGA
Description: as §2, §3

Sequence of Kv1.5 (P22460 whole entry): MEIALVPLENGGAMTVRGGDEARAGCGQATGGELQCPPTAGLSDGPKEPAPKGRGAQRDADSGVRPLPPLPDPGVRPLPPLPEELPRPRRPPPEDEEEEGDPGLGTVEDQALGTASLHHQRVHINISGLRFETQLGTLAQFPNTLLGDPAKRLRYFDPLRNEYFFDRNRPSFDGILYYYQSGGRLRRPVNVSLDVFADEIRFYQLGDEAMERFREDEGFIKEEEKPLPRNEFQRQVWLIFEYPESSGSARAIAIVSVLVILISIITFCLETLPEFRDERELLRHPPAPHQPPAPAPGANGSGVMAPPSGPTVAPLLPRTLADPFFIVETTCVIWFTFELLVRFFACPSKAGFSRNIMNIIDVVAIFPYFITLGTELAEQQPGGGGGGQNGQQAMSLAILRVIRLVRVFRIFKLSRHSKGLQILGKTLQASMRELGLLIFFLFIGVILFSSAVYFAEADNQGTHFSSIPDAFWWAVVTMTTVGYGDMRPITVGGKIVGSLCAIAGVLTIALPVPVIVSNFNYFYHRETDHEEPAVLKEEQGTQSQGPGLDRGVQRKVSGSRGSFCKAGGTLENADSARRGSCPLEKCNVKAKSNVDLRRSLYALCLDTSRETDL

COC1C=CC=C(C)C(=O)NC2=CC(=O)C(NCCCCCC[P+](c3ccccc3)(c3ccccc3)c3ccccc3)=C(CC(C)CC(OC)C(O)C(C)C=C(C)C1OC(N)=O)C2=O.F[P-](F)(F)(F)(F)F (centres unmarked) [Gamitrinib]
inhibition of HCN4 currents (HCN4): −0.2 ± 3.7% | inhibition of Kv4.3/KChIP2 currents (Kv4.3/KChIP2): 6.8 ± 2.2% | IC50 (CYP2B6): 16 µM | inhibition of Kv1.5 currents (Kv1.5): 6.6 ± 1.3% | IC50 (CYP3A4): 120 to 200 nM
